Measured values: patent US20260144879A1, “ANTI-VIRAL AND HEPATIC-TARGETED DRUGS” (AI-BIOPHARMA, priority 2019, published 2026)

Columns and labels:
[1] = system: HBV (genotype D, serotype ayw, Galibert's strain); test: Quantification of virion associated secreted HBV DNA in supernatant of HBV-infected Primary Human Hepatocytes (PHH) by qPCR, % of replication vs DMSO; format: cell-based, hepatitis B virus; settings: 1 μM compound, 7 days treatment, DMSO = 100%; for PHH HBV % of replication at 1 μM compared to DMSO: (*) n = 1; for activity at 1 µM: Hepatitis B virus, Hepatocyte, 168 h, (*) n = 1, read-out: PHH HBV % of replication at 1 μM compared to DMSO
Experimental: (§1) From Methods in Lucifora J. et al. (Direct antiviral properties of TLR ligands against HBV replication in immune-competent hepatocytes, Science Scientific Reports, 2018, 8:5390): • 1) HepaRG cells were cultured, as described previously by Gripon P. et al. (Infection of a human hepatoma cell line by hepatitis B virus. Proc Natl Acad Sci USA, 2002, 99, p 15655-15660) on pages 15655 and 15656, in Williams E medium supplemented with 10% fetal calf serum, 50 U penicillin/streptomycin (Gibco-Invitrogen) ml^−1, […] ml^−1 and 5×10^−7 M hydrocortisone hemisuccinate (Roche Diagnostics and Boehringer Mannheim, respectively). The cell cultures were maintained in a 5% CO2 atmosphere at 37° C. During the proliferation phase, culture medium was renewed every 2 days. For differentiation and infection, cells were maintained for 2 weeks in standard medium and then for at least 2 more weeks in medium supplemented with 1.8-2.0% DMSO (Sigma). • 2) Primary Human Hepatocytes (PHH) were freshly prepared from human liver resection as previously described by Lecluyse, E. L. & Alexandre, E. (Isolation and culture of primary hepatocytes from resected human liver tissue. Methods Mol Biol, 2010, 640, p 57-82, https://doi.org/10.1007/978-1-60761-688-7_3) on page 63 paragraph 3. “Methods” from section 3.1. through 3.6.2. page 77. All experimental procedures were conducted in conformity with French laws and regulations and were approved by the National Ethics Committee. • 3) Cell viability was measured by both neutral red and MTS (CellTiter 96 Aqueous One Solution cell proliferation assay; Promega) tests. • 4) HBV inoculum (genotype D, serotype ayw, Galibert's strain referred as NC_003977.2 at NCBI) was prepared from HepAD38 (see Ladner, S. K. et al., Inducible expression of human hepatitis B virus (HBV) in stably transfected hepatoblastoma cells: a novel system for screening potential inhibitors of HBV replication. Antimicrob Agents Chemother, 1997, 41, p 1715-1720) supernatants by polyethylene-glycol-MW-8000 (PEG8000, SIGMA) precipitation (8% final) as previously described by Luangsay, S. et al. (Early inhibition of hepatocyte innate responses by hepatitis B virus. J Hepatol, 2015, 63, p 1314-1322, https://doi.org/10.1016/j.jhep.2015.07.014).
(§2) Viral stocks with titer reaching at least 1×10^10 viral genome equivalent (vge)/mL were tested endotoxin free.
(§3) Differentiated HepaRG (dHepaRG) or PHH were infected by HBV at a multiplicity of infection of 100-200 vge/cell in culture medium containing 4% PEG 8000 (Sigma) for 16 h at 37° C. in 12- or six-well plates. At the end of the incubation period, cells were washed once with medium and then cultured in Williams E medium containing DMSO as indicated. In general infection was left for 7 days before any treatment was started, to allow replication reaching its maximum. • 5) Infected cell treatment with compounds of interest: • 5a: After 7 days of infection with the virus (day 0 to day 7), the dHepaRG cells were treated (3 treatments: day 7, day 10 and day 12) with a […] of the tested compound (diluted with sterile water from a 10 mM stock DMSO solution) or DMSO as reference negative control for 7 more days. • 5b: After 4 days of infection with the virus (day 0 to day 4), the PHH cells were treated (3 treatments: day 4, day 7 and day 9) with a […] of the tested compound (diluted with sterile water from a 10 mM stock DMSO solution) for 7 more days. • 6) Quantification of virion associated secreted HBV DNA in cell culture supernatant:
(§4) At the end of the experiment (7 days treatment) the supernatant of infected and treated cells (either dHepaRG or PHH or others) is collected. It is diluted 1/4 into sterile water (molecular biology quality) then treated for 30 minutes with RNAse (10 unit) and DNAse (10 unit) to remove non encapsidated material. […]

HepaRG cells = test: Cell viability by neutral red and MTS (CellTiter 96 Aqueous One Solution) tests, HepaRG cells; format: cell-based, human; settings: dHepaRG cells, CellTiter-Glo; read-out: Cytotoxicity (CC50 in μM) in dHepaRG CellTiter-Glo
Experimental: (§5) From Methods in Lucifora J. et al. (Direct antiviral properties of TLR ligands against HBV replication in immune-competent hepatocytes, Science Scientific Reports, 2018, 8:5390): • 1) HepaRG cells were cultured, as described previously by Gripon P. et al. (Infection of a human hepatoma cell line by hepatitis B virus. Proc Natl Acad Sci USA, 2002, 99, p 15655-15660) on pages 15655 and 15656, in Williams E medium supplemented with 10% fetal calf serum, 50 U penicillin/streptomycin (Gibco-Invitrogen) ml^−1, […] ml^−1 and 5×10^−7 M hydrocortisone hemisuccinate (Roche Diagnostics and Boehringer Mannheim, respectively). The cell cultures were maintained in a 5% CO2 atmosphere at 37° C. During the proliferation phase, culture medium was renewed every 2 days. For differentiation and infection, cells were maintained for 2 weeks in standard medium and then for at least 2 more weeks in medium supplemented with 1.8-2.0% DMSO (Sigma). • 2) Primary Human Hepatocytes (PHH) were freshly prepared from human liver resection as previously described by Lecluyse, E. L. & Alexandre, E. (Isolation and culture of primary hepatocytes from resected human liver tissue. Methods Mol Biol, 2010, 640, p 57-82, https://doi.org/10.1007/978-1-60761-688-7_3) on page 63 paragraph 3. “Methods” from section 3.1. through 3.6.2. page 77. […] K. et al., Inducible expression of human hepatitis B virus (HBV) in stably transfected hepatoblastoma cells: a novel system for screening potential inhibitors of HBV replication. Antimicrob Agents Chemother, 1997, 41, p 1715-1720) supernatants by polyethylene-glycol-MW-8000 (PEG8000, SIGMA) precipitation (8% final) as previously described by Luangsay, S. et al. (Early inhibition of hepatocyte innate responses by hepatitis B virus. J Hepatol, 2015, 63, p 1314-1322, https://doi.org/10.1016/j.jhep.2015.07.014).

[2] = system: HBV (genotype D, serotype ayw, Galibert's strain); test: Quantification of virion associated secreted HBV DNA in supernatant of HBV-infected differentiated HepaRG (dHepaRG) cells by qPCR, % of replication vs DMSO; format: cell-based, hepatitis B virus; settings: 1 μM compound, 7 days treatment, DMSO = 100%; for activity at 1 µM: Hepatitis B virus, HepaRG, 168 h, read-out: dHepaRG HBV % of replication at 1 μM compared to DMSO
Experimental: as §1, §2, §3, §4

[3] = Cell viability by neutral red and MTS (CellTiter 96 Aqueous One Solution) tests, HepaRG cells; format: cell-based, human; settings: human, differentiated HepaRG (dHepaRG) cells, CellTiter-Glo, read-out: Cytotoxicity (CC50 in μM) in dHepaRG CellTiter-Glo
Experimental: as §5

SMILES | PHH HBV % of replication at 1 μM compared to DMSO [1] | CC50 (HepaRG cells) | dHepaRG HBV % of replication at 1 μM compared to DMSO [2] | activity at 1 µM [1] | CC50 [3] | activity at 1 µM [2]
C[C@H](Cn1cnc2c(N)ncnc21)OCP(=O)(O)O [TFV] | ++++ (++++ ≤ 30%) | > 50 µM | ++++ (++++ ≤ 30%) | – | – | –
CC(C)OC(=O)CC1COP(=O)(CO[C@H](C)Cn2cnc3c(N)ncnc32)OC1 (stereo partly drawn) [Example 3, (R)-isopropyl 2-(2-(((1-(6-amino-9H-purin-9-yl)propan-2-yl)oxy)methyl)-2-oxo-1,3,2-dioxaphosphinan-5-yl)acetate] | – | – | – | ≤ 30% | > 50 µM | ≤ 30%
CC(C)OC(=O)CC1COP(=O)(CO[C@H](C)Cn2cnc3c(N(C(=O)c4ccccc4)C(=O)c4ccccc4)ncnc32)OC1 (stereo partly drawn) [Example 20, (R)-isopropyl 2-(2-(((1-(6-(N-benzoylbenzamido)-9H-purin-9-yl)propan-2-yl)oxy)methyl)-2-oxido-1,3,2-dioxaphosphinan-5-yl)acetate] | – | – | – | ≤ 30% | > 50 µM | ≤ 30%
CC(C)OC(=O)CC1COP(=O)(CO[C@H](C)Cn2cnc3c(NC(=O)c4ccccc4)ncnc32)OC1 (stereo partly drawn) [Example 21, (R)-isopropyl 2-(2-(((1-(6-benzamido-9H-purin-9-yl)propan-2-yl)oxy)methyl)-2-oxo-1,3,2-dioxaphosphinan-5-yl)acetate] | – | – | – | ≤ 30% | > 50 µM | ≤ 30%
CC(C)OC(=O)[C@H](C)N[P@](=O)(CO[C@H](C)Cn1cnc2c(N)ncnc21)Oc1ccccc1 [TAF] | ++++ (++++ ≤ 30%) | < 10 µM | ++++ (++++ ≤ 30%) | – | – | –
